Laboratory results published in patent US20260138976A1 (Hoffmann-La Roche Inc., priority 2022, published 2026).

Columns and labels:
[1] = tested on: primary human T-cells; test: IL2 secretion measurements (24 h, CD3-stimulated T-cells, PBS counter screen); format: cell-based; details: for Emax IL2 (% activation): CD3 condition, normalised to DMSO (neutral) and 20 μM reference compound A1 = 100%; for EC50: Homo sapiens, T-cell, CD3-stimulated primary human T-cells, IL2 secretion, fitted sigmoidal curve, read-out: Tcell IL2 CD3 EC50
Protocol: (§1) As readouts for T-cell activation, 1L2 secretion after 24 hours and proliferation after 5 days was measured. Increases in IL2 secretion and proliferation upon compound treatment were assessed as the % of the maximum of reference compound A1. WO 2016/139181 discloses reference compound A1 as example 70. As a counter screen and to make sure that no unwanted TCR-independent activation was triggered, PBS conditions were run for all compounds.
Expanded primary human T-cells were thawed and cultured in RPMI 1640 (Gibco, #61870-010)+5% human serum (HS, Sigma, #H3667)+1 mM Sodium Pyruvate (Gibco, #11360-039)+50 μM 2-mercaptoethanol (Gibco, #31350-010) and 1× Pen-Strep (Life Technologies, #15140122) medium at density of 2 Mio/ml for 3 hours in 5% CO2, 37° C. and 95% humidity. For coating of plates, […] or PBS++ with CD3 antibody (concentration depending on donor and determined by CD3 titrations) was added 100 μl/well to Poly-D Lysine coated 96-well plates. Plates were sealed and incubated at room temperature for 3 hours on a table-top rocking platform. After incubation, plates were washed once with PBS−− and filled with 40 μl/well culture medium only. Compounds were then added (see next section) to medium only plates. After 3 hours of culturing the T-cells, cells were filtered through a cell strainer (Miltenyi Biotech, #130-041-407), counted again and concentration was adjusted to 1.25 Mio/ml.
Cells were then seeded 80 μl/well to the 40 μl/well including dispensed compounds according to plate layout. By adding cells, compounds were further diluted 1:3, and resulting in 100 k cells/120 μl/well. After 24 hours 40 μl of supernatant was collected carefully from the top while not disturbing the cells and transferred into a round bottom 96 well plate. Collected and frozen supernatant was used for detection of IL2 using the IL-2 Human ProQuantum Immunoassay Kit (Invitrogen) or using the Human IL-2 ELISA Kit (Thermo Fisher).
(§2) Compounds were added in a 5 or 6 pt dose response with the Tecan D300e Digital Dispenser, all conditions 3 times more concentrated than the end-concentration, since cells are added afterwards (80 μl cells to 40 μl prepared medium with treatment). The DR was starting at 20 μM or 10 μM final top concentration and a dilution factor of 3.333. The positive control was the reference compound A1 that was added in a dose response as well, additionally to 3 wells of only 20 μM representing the positive stimulator control. All wells were normalized with DMSO to a final concentration of 0.6% (0.2% end-concentration).
The immunoassay is done following the manufacturer's manual (Invitrogen, #A35603). Additional information: For the immunoassay, MicroAmp™ EnduraPlate™ Optical 384-Well plates are used. Frozen supernatant is thawed and centrifuged for 5 minutes at 1000×g, both steps at 4° C. After centrifugation, required sample amount is taken from the top, and in a separate LightCycler V-bottom plate (working plate) diluted with assay dilution buffer, dilution factor depending on the PBS or CD3 condition but at least 1:3. IL-2 standard and blanks are prepared in the same V-bottom plate, standard with a range of 0.0128-5000 pg/ml (extended version). After preparation, 5 μl of sample dilutions or standard/blanks are transferred to the optical 384-well plate (assay plate) and the 10 μl reaction protocol is being followed. For measurement, the QuantStudio 12K Flex system is used. Raw data is extracted and IL-2 concentrations are calculated with the Thermo Fisher online app (apps.thermofisher.com/apps/proquantum).
ELISA is done following the manufacturer's manual (Thermo Fisher Scientific, #88-7025-88). Additional information: For the ELISA Nunc MaxiSorp 96 well plates are used. Frozen supernatant is thawed and centrifuged for 5 minutes at 1000×g, both steps at 4° C. […]

[2] = tested on: primary human T-cells; test: Proliferation assay (5 days, CellTiter-Glo, CD3-stimulated T-cells); format: cell-based; details: for Emax proliferation (% activation): CD3 condition, normalised to DMSO (neutral) and 20 μM reference compound A1 = 100%; for EC50: Homo sapiens, T-cell, 120 h, CD3-stimulated primary human T-cells, 5 days, CellTiter-Glo, fitted sigmoidal curve, read-out: Tcell Proliferation CD3 EC50
Protocol: as §1
Expanded primary human T-cells are thawed and cultured in RPMI 1640 (Gibco, #61870-010)+5% human serum (HS, Sigma, #H3667)+1 mM Sodium Pyruvate (Gibco, #11360-039)+50 μM 2-mercaptoethanol (Gibco, #31350-010) and 1× Pen-Strep (Life Technologies, #15140122) medium at density of 2 Mio/ml for 3 hours in 5% CO2, 37° C. and 95% humidity. For coating of plates, PBS++ only or PBS++ with CD3 antibody (concentration depending on donor and determined by CD3 titrations) is added 100 μl/well to Poly-D Lysine coated 96-well plates. Plates are sealed and incubated at room temperature for 3 hours on a table-top rocking platform. After incubation, plates are washed once with PBS−− and filled with 40 μl/well culture medium only. Compounds are then added (see next section) to medium only plates. After 3 hours of culturing the T-cells, cells are filtered through a cell strainer (Miltenyi Biotech, #130-041-407), counted again and concentration is adjusted to 1.25 Mio/ml.
Cells are then seeded 80 μl/well to the 40 μl/well including dispensed compounds according to plate layout. By adding cells, compounds are further diluted 1:3, and resulting in 100 k cells/120 μl/well. After 48 hours 40 μl of supernatant is collected carefully from the top while not disturbing the cells. Cells are assessed for proliferation 5 days later by measuring […] using CellTiterGlo (Promega).
as §2
After 5 days, for detection of ATP which is directly proportional to the number of cells present per well, the CellTiter-Glo® 2.0 Reagent is used. After visual control for toxicity or precipitations of the tested compounds, the plates are equilibrated to room temperature for 45 minutes. CellTiter-Glo® 2.0 Reagent is equilibrated to room temperature as well. After equilibration, an equal amount of CellTiter-Glo reagent is added to the cells (80 μl/well) with an electronic multichannel pipette. Plates are placed on a rocking platform for 15 minutes at room temperature. After incubation, the bottom of the plates is sealed with backing tape. Luminescence is measured with PHERAstar FSX (interval time 0.5 sec, gain 3000, focal height 15 mm) and exported as CSV file for analysis in Genedata screener.
CD3 and PBS plates were analysed separately in Genedata Screener using Roche Normalization PCT_POS_CTRL with DMSO set as Neutral Control and 20 μM of the reference compound A1 set as Stimulator Control/100%.
For CD3 conditions EC50 and Emax of the fitted sigmoidal curve were reported. If no curve could be fitted, the EC50 was reported as blank field and the Emax was based on individual data points. […] Compounds which activate unstimulated cells (see IL2 measurements) or compounds which negatively affected viability were flagged.

Row | Structure (SMILES) | Emax IL2 (% activation) [1] [% activation] | EC50 [1] [nM] | Emax proliferation (% activation) [2] [% activation] | EC50 [2] [nM]
1 | CC(C)(C)c1nnc(-c2ccc3c(c2)N(Cc2ccc(-c4nc(C(F)(F)F)no4)cc2)C(=O)[C@@H](N)CS3(=O)=O)o1 [Example 26, (3R)-3-amino-7-(5-tert-butyl-1,3,4-oxadiazol-2-yl)-1,1-dioxo-5-[[4-[3-(trifluoromethyl)-1,2,4-oxadiazol-5-yl]phenyl]methyl]-2,3-dihydro-1λ^6,5-benzothiazepin-4-one] | 155 | 1600 | 184 | 302
2 | CC(C)(C)c1nnc(-c2ccc3c(c2)N(Cc2ccc(-c4nc(C5CC5)no4)cc2)C(=O)[C@@H](N)CS3(=O)=O)o1 [Example 29, (3R)-3-amino-7-(5-tert-butyl-1,3,4-oxadiazol-2-yl)-5-[[4-(3-cyclopropyl-1,2,4-oxadiazol-5-yl)phenyl]methyl]-1,1-dioxo-2,3-dihydro-1λ^6,5-benzothiazepin-4-one] | 156 | 956 | 208 | 844
3 | CC(C)(C)c1nnc(-c2ccc3c(c2)N(Cc2ccc(-c4cc(C(F)(F)F)on4)cc2)C(=O)[C@@H](N)CS3(=O)=O)o1 [Example 30, (3R)-3-amino-7-(5-tert-butyl-1,3,4-oxadiazol-2-yl)-1,1-dioxo-5-[[4-[5-(trifluoromethyl)isoxazol-3-yl]phenyl]methyl]-2,3-dihydro-1λ^6,5-benzothiazepin-4-one] | 117 | 3510 | 139 | 4360
4 | CC(C)(C)c1nnc(-c2ccc3c(c2)N(Cc2ccc(-c4cc(C(F)(F)F)no4)cc2)C(=O)[C@@H](N)CS3(=O)=O)o1 [Example 31, (3R)-3-amino-7-(5-tert-butyl-1,3,4-oxadiazol-2-yl)-1,1-dioxo-5-[[4-[3-(trifluoromethyl)isoxazol-5-yl]phenyl]methyl]-2,3-dihydro-1λ^6,5-benzothiazepin-4-one] | 133 | 906 | 83 | 349
5 | CC(C)(C#N)c1nnc(-c2ccc3c(c2)N(Cc2ccc(-c4ccc(C(F)F)cn4)cc2)C(=O)[C@@H](N)CS3(=O)=O)o1 [Example 40, 2-[5-[(3R)-3-amino-5-[[4-[5-(difluoromethyl)-2-pyridyl]phenyl]methyl]-1,1,4-trioxo-2,3-dihydro-1λ^6,5-benzothiazepin-7-yl]-1,3,4-oxadiazol-2-yl]-2-methyl-propanenitrile] | 105 | 3790 | 118 | 2480
6 | N[C@H]1CS(=O)(=O)c2ccc(-c3nnc(C4(N)CCCCC4)o3)cc2N(Cc2ccc(-c3noc(C4CCC(F)(F)C4)n3)cc2)C1=O (stereo partly drawn) [Example 44, (3R)-3-amino-7-[5-(1-aminocyclohexyl)-1,3,4-oxadiazol-2-yl]-5-[[4-[5-(3,3-difluorocyclopentyl)-1,2,4-oxadiazol-3-yl]phenyl]methyl]-1,1-dioxo-2,3-dihydro-1λ^6,5-benzothiazepin-4-one] | 112 | 1040 | 124 | 741
7 | CC(C)(C#N)c1nnc(-c2ccc3c(c2)N(Cc2ccc(-c4nc(C5CC5)no4)cc2)C(=O)[C@@H](N)CS3(=O)=O)o1 [Example 139, 2-[5-[(3R)-3-amino-5-[[4-(3-cyclopropyl-1,2,4-oxadiazol-5-yl)phenyl]methyl]-1,1,4-trioxo-2,3-dihydro-1λ^6,5-benzothiazepin-7-yl]-1,3,4-oxadiazol-2-yl]-2-methyl-propanenitrile] | – | – | 93 | 1020
8 | N#CC1(c2nnc(-c3ccc4c(c3)N(Cc3ccc(-c5ccc(OC(F)(F)F)cn5)cc3)C(=O)[C@@H](N)CS4(=O)=O)o2)CCOC1 (stereo partly drawn) [Example 177, 3-[5-[(3R)-3-amino-1,1,4-trioxo-5-[[4-[5-(trifluoromethoxy)-2-pyridyl]phenyl]methyl]-2,3-dihydro-1λ^6,5-benzothiazepin-7-yl]-1,3,4-oxadiazol-2-yl]tetrahydrofuran-3-carbonitrile] | – | – | 101 | 806
9 | N[C@H]1CS(=O)(=O)c2ccc(-c3nnc(C4(N)CC(F)(F)C4)o3)cc2N(Cc2ccc(-c3ccc(OC(F)(F)F)cn3)cc2)C1=O [Example 179] | – | – | 106 | 936
10 | CN1CCC(C#N)(c2nnc(-c3ccc4c(c3)N(Cc3ccc(-c5ccc(OC(F)(F)F)cn5)cc3)C(=O)[C@@H](N)CS4(=O)=O)o2)CC1 [Example 180, 4-[5-[(3R)-3-amino-1,1,4-trioxo-5-[[4-[5-(trifluoromethoxy)-2-pyridyl]phenyl]methyl]-2,3-dihydro-1λ^6,5-benzothiazepin-7-yl]-1,3,4-oxadiazol-2-yl]-1-methyl-piperidine-4-carbonitrile] | – | – | 102 | 651
